Entries after “also recorded” stand apart in the source; their conditions may differ.
Key:
FPR [1] = molecular target: T1, FPR (Homo sapiens, UniProt P21462); test: FPR cell surface expression (FACS), ETFR cells and monocytes; type: cell-based; conditions: 5 μg/ml CaG or 1 μM fMLF, 37° C. 30 min
T1 construct: expressed in transfected cells; host or cells: Rat basophilic leukemia (RBL) cells, stably transfected (ETFR cells); gift of H. Ali and R. Snyderman, Duke University
T1 sequence (P21462 1-350): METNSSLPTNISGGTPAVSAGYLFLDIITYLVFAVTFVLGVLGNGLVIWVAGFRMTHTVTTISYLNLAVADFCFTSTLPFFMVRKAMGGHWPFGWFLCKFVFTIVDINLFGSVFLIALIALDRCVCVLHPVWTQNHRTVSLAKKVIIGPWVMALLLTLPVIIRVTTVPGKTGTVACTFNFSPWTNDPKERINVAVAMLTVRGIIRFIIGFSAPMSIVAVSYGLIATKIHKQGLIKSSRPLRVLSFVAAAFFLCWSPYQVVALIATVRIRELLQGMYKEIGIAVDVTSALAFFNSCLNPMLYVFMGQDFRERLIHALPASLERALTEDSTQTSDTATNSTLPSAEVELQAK
Experimental: Cell surface expression of FPR was monitored by a flow cytometer (FACS). Monocytes and ETFR cells (1×10^6 cells/sample) were pretreated with medium or stimulants at 37° C. for 30 minutes. After two washes with cold FACS buffer (DPBS, 1% FCS, 0.02% sodium azide, and 5 mM EDTA, pH7.4), the cells were blocked with 5% normal rat serum followed by incubation with a monoclonal anti-human FPR antibody or isotype matched IgG on ice for 30 min. After three washes with FACS buffer, FITC-labeled rat anti-mouse antibody (PharMingen) was applied and incubated on ice for 30 min. The cells were then washed twice with FACS buffer and analyzed immediately by flow cytometry (Becton Dickinson, San Jose, Calif.).

PKC isozymes = test: PKC translocation in parental RBL cells; type: cell-based, rat; conditions: 100 nM fMLF, 10 μg/ml CaG or PMA 500 nM, 37° C. 10 min
neutrophils [2] = test: Calcium flux (Fura-2), neutrophils; type: cell-based, human
FPR [3] = molecular target: T1, FPR; test: FPR internalization (confocal microscopy), ETFR cells; type: cell-based; conditions: 30 min 37° C.
Experimental: For detection of FPR internalization, ETFR cells were seeded on coverslips and cultured overnight in DMEM containing 10% FCS at 37° C. After pretreatment with medium or stimulants for 30 minutes at 37° C., the cells were fixed in 0.25% paraformaldehyde for 15 min at 4° C. The cells were then permeabilized with 0.2% Tween 20 for 30 min at 4° C., followed by incubation with a monoclonal anti-human FPR antibody or isotype matched IgG for 30 min at 4° C. After three washes with 0.1% Tween 20 in DPBS, a FITC-labeled rat anti-mouse antibody (PharMingen) was applied to the cells for 30 min at 4° C. The coverslips were covered with DAPI, then mounted with an anti-fade, water-based mounting medium and analyzed under a laser scanning Zeiss LSM410 fluorescence confocal microscope.

neutrophils [4] = test: Chemotaxis assay, neutrophils; type: cell-based, human; conditions: neutrophils
Experimental: Human PBMC were isolated from leukopacks obtained through the courtesy of Transfusion Medicine Department, National Institutes of Health Clinical Center (Bethesda, Md.) by Ficoll-Hypaque density gradient centrifugation. Monocytes were purified from human PBMC by Percoll gradient to yield>90% pure preparations. […] H. Ali and R. Snyderman, Duke University (Durham, N.C.) and maintained in the presence of 0.8 mg/ml geneticin (G418, Life Technologies, Rockville, Md.) in DMEM supplemented with 10% FCS. B. Chemotaxis assay Migration of phagocytes and ETFR cells was assessed using a 48-well microchemotaxis chamber (Neuroprobe, Cabin John, Md.) as previously described (Hu et al. (2001) J Leukoc Biol 70 15512). Briefly, different concentrations of stimulants were placed in the wells of the lower compartment of the chamber, and 50 μl cells (1.5×10^6 cells/ml for monocyte and neutrophil, 1×10^6 ETFR cells/ml) were added to the wells of the upper compartment. The lower and upper compartments were separated by either a 5-μm (for monocyte) or a 10-μm pore size, collagen-coated (for ETFR cells) polycarbonate filter (Osmonics, Livermore, Calif.). After incubation at 37° C. in humidified air with 5% CO2 (60 min for neutrophils, 90 min for monocytes, 4.5 h for ETFR cells), the filter was removed and stained, and the cells migrating across the filter were counted with light microscopy. The results are presented as the mean number of cells (±SD) in three high power fields (HPFs). For analysis of cross-desensitization, cells were pretreated with indicated reagents for 1 h at 37° C. After thorough washing with cold medium (RPMI 1640, 1% BSA), the cells were resuspended and assayed. To measure the effect of various signaling inhibitors, unless otherwise indicated, the cells were pre-incubated at 37° C. for 60 min with the inhibitors, and were then added to the upper wells of the chemotaxis chamber.

p38 MAPK = test: Phosphorylation of p38 MAPK in ETFR cells (Western blot); type: cell-based, rat
Experimental: ETFR cells were plated in Petri dishes and cultured in DMEM at 37° C. in humidified 5% CO2 atmosphere for 48 h. After further culture in serum-free DMEM overnight, the cells were treated with stimulants for indicated time periods. The reaction was stopped by adding 1 ml ice-cold PBS, and the cells were lysed in 1×SDS lysis buffer (62.5 mM Tris-HCl, 2% w/v SDS, 10% glycerol, 50 mM DTT, pH 6.8) and harvested into tubes for sonication. Proteins (50 μg for each sample) were resolved by SDS-PAGE and transferred onto nitrocellulose membranes (Bio-Rad, Hercules, Calif.). The membranes were blocked for 2 h at room temperature in 3% non-fat milk prepared in Tris-buffered saline-T (10 mM Tris-HCl, pH 7.5, 150 mM NaCl, 0.1% Tween 20) and probed with anti-p-ERK1/2, p-p38 MAPK, or p-Akt (1:1000) at room temperature for 1-2 h or at 4° C. overnight. The membranes were then washed and incubated with horseradish peroxidase-conjugated secondary antibodies diluted in Tris-buffered saline-T for 1 h at room temperature. The immune complexes on the membranes were visualized using ECL reagents. Total ERK1/2, p38 MAPK, and Akt were visualized by stripping the same membrane and probing with antibodies against total ERK1/2, p38 MAPK, and Akt.

“CaG: Cathepsin G, serine protease purified from neutrophil granules, purchased from Athens Research & Technology” was tested, and the “down-regulation of FPR from the cell surface” value (FPR [1]) was “weaker, but significant ability of CaG to down-regulate FPR”, the “PKC translocation in parental RBL cells” value (PKC isozymes) was “Neither CaG nor fMLF stimulated PKC translocation in parental RBL cells” and the “Ca2+ flux” value (neutrophils [2]; CaG 10 μg/ml) was “failed to induce significant Ca^2+ flux”. For the same substance, the “attenuation of Ca2+ response to fMLF” value (neutrophils [2]; CaG 10 μg/ml, 0.1 nM fMLF) was “attenuated cell response induced by low concentrations of fMLF; also recorded: significantly attenuated cell response to 0.1 nM fMLF”, the “Ca2+ mobilizing activity” value (neutrophils [2]; concentrations up to 20 μg/ml (800 nM)) was “lacked significant Ca^2+ mobilizing activity” and the FPR internalization (FPR [3]) was “significantly and dose-dependently induced FPR internalization”. For the same substance, the “concentration range potently chemotactic” value (neutrophils [4]) was 4 to 400 nM and the “time to activation of p38 MAPK” value (p38 MAPK) was 1 to 5 min.
